Data taken from ChEMBL document CHEMBL3885861, “Open TG-GATES”.

Species on record: Rattus norvegicus
Experiment: Open TG-GATES - Regimen: Single
Type: toxicity, organism-based, Sprague-Dawley
Design: regimen Single, gender Male, age 6 weeks
Details: in vivo, po, 0 mg/kg, route gavage, dose level Control; for APTT / Bas / Eos / Fbg / Hb / Ht / Lym / MCH / MCV / Mono / Neu / PT / Plat / RBC / Ret / WBC: tissue Blood; for KIDNEY_L / KIDNEY_R / KIDNEY_TOTAL: tissue Kidney; for LIVER: tissue Liver; for ALP / ALT / AST / BUN / CRE / Ca / Cl / DBIL / GLC / IP / K / LDH / Na / PL / RALB / TBIL / TG / TP / gamma-GTP: tissue Plasma

**Q.** What does the source list for `NC(=O)N1c2ccccc2C=Cc2ccccc21` [CARBAMAZEPINE]?
**A.** TERMINAL_BW (3 h): 216.5 g; APTT (3 h): 20 s; Bas (3 h): 0%; Eos (3 h): 1%; Fbg (3 h): 213.8 mg/dL; Hb (3 h): 13.4 g/dL; Ht (3 h): 38.6%; Lym (3 h): 80%; MCH (3 h): 21.9 pg; MCV (3 h): 63.2 fL; Mono (3 h): 2%; Neu (3 h): 16%; PT (3 h): 12.4 s; Plat (3 h): 131 x10_4/uL; RBC (3 h): 611.8 x10_4/ul; Ret (3 h): 6.3%; WBC (3 h): 106.8 x10_2/uL; KIDNEY_L (3 h): 1 g; KIDNEY_R (3 h): 0.9 g; KIDNEY_TOTAL (3 h): 1.9 g; LIVER (3 h): 10 g; ALP (3 h): 846.4 IU/L; ALT (3 h): 33 IU/L; AST (3 h): 64.6 IU/L; BUN (3 h): 11.6 mg/dL; CRE (3 h): 0.4 mg/dL; Ca (3 h): 10.7 mg/dL; Cl (3 h): 103 meq/L; DBIL (3 h): 0.082 mg/dL; GLC (3 h): 199.2 mg/dL; IP (3 h): 9 mg/dL; K (3 h): 3.6 meq/L; LDH (3 h): 176.6 IU/L; Na (3 h): 141.2 meq/L; PL (3 h): 131.8 mg/dL; RALB (3 h): 3.3 g/dL; TBIL (3 h): 0.1 mg/dL; TG (3 h): 66.2 mg/dL; TP (3 h): 5.4 g/dL; gamma-GTP (3 h): 0.8 IU/L; TERMINAL_BW (6 h): 213.8 g; APTT (6 h): 19.3 s; Bas (6 h): 0%; Eos (6 h): 1%; Fbg (6 h): 220.2 mg/dL; Hb (6 h): 13.7 g/dL; Ht (6 h): 40%; Lym (6 h): 77%; MCH (6 h): 21.3 pg; MCV (6 h): 62.5 fL; Mono (6 h): 3.2%; Neu (6 h): 17.6%; PT (6 h): 12.5 s; Plat (6 h): 115.6 x10_4/uL; RBC (6 h): 640.4 x10_4/ul; Ret (6 h): 6.6%; WBC (6 h): 94.2 x10_2/uL; KIDNEY_L (6 h): 1 g; KIDNEY_R (6 h): 1 g; KIDNEY_TOTAL (6 h): 2 g; LIVER (6 h): 9.2 g; ALP (6 h): 858.4 IU/L; ALT (6 h): 37 IU/L; AST (6 h): 65.6 IU/L; BUN (6 h): 8.8 mg/dL; CRE (6 h): 0.4 mg/dL; Ca (6 h): 10.5 mg/dL; Cl (6 h): 103 meq/L; DBIL (6 h): 0.08 mg/dL; GLC (6 h): 196.8 mg/dL; IP (6 h): 9.4 mg/dL; K (6 h): 3.9 meq/L; LDH (6 h): 175.2 IU/L; Na (6 h): 140.2 meq/L; PL (6 h): 133.4 mg/dL; RALB (6 h): 3.3 g/dL; TBIL (6 h): 0.1 mg/dL; TG (6 h): 60.4 mg/dL; TP (6 h): 5.5 g/dL; gamma-GTP (6 h): 1.4 IU/L; TERMINAL_BW (9 h): 211.7 g; APTT (9 h): 22.5 s; Bas (9 h): 0%; Eos (9 h): 1%; Fbg (9 h): 220 mg/dL; Hb (9 h): 13 g/dL; Ht (9 h): 38.2%; Lym (9 h): 78.8%; MCH (9 h): 20.9 pg; MCV (9 h): 61.5 fL; Mono (9 h): 2.2%; Neu (9 h): 17.5%; PT (9 h): 13.2 s; Plat (9 h): 119.7 x10_4/uL; RBC (9 h): 621.8 x10_4/ul; Ret (9 h): 6.6%; WBC (9 h): 89.4 x10_2/uL; KIDNEY_L (9 h): 1 g; KIDNEY_R (9 h): 1 g; KIDNEY_TOTAL (9 h): 2 g; LIVER (9 h): 9.3 g; ALP (9 h): 824.8 IU/L; ALT (9 h): 32 IU/L; AST (9 h): 63.8 IU/L; BUN (9 h): 9.8 mg/dL; CRE (9 h): 0.4 mg/dL; Ca (9 h): 10.3 mg/dL; Cl (9 h): 102 meq/L; DBIL (9 h): 0.07 mg/dL; GLC (9 h): 202.8 mg/dL; IP (9 h): 9.3 mg/dL; K (9 h): 3.9 meq/L; LDH (9 h): 170.4 IU/L; Na (9 h): 140.2 meq/L; PL (9 h): 127 mg/dL; RALB (9 h): 3.3 g/dL; TBIL (9 h): 0.1 mg/dL; TG (9 h): 47 mg/dL; TP (9 h): 5.3 g/dL; gamma-GTP (9 h): 1 IU/L; TERMINAL_BW (24 h): 225.7 g; APTT (24 h): 21.9 s; Bas (24 h): 0%; Eos (24 h): 0.8%; Fbg (24 h): 215.6 mg/dL; Hb (24 h): 13.7 g/dL; Ht (24 h): 40.7%; Lym (24 h): 79.8%; MCH (24 h): 21.5 pg; MCV (24 h): 63.9 fL; Mono (24 h): 2.4%; Neu (24 h): 15.8%; PT (24 h): 12.1 s; Plat (24 h): 117.9 x10_4/uL; RBC (24 h): 637.2 x10_4/ul; Ret (24 h): 6%; WBC (24 h): 90.1 x10_2/uL; KIDNEY_L (24 h): 1 g; KIDNEY_R (24 h): 1 g; KIDNEY_TOTAL (24 h): 2 g; LIVER (24 h): 10.4 g; ALP (24 h): 990.6 IU/L; ALT (24 h): 39.2 IU/L; AST (24 h): 70.4 IU/L; BUN (24 h): 15.6 mg/dL; CRE (24 h): 0.4 mg/dL; Ca (24 h): 10.6 mg/dL; Cl (24 h): 102.4 meq/L; DBIL (24 h): 0.088 mg/dL; GLC (24 h): 207 mg/dL; IP (24 h): 7.9 mg/dL; K (24 h): 4 meq/L; LDH (24 h): 199 IU/L; Na (24 h): 140.4 meq/L; PL (24 h): 146.2 mg/dL; RALB (24 h): 3.4 g/dL; TBIL (24 h): 0.1 mg/dL; TG (24 h): 93.6 mg/dL; TP (24 h): 5.6 g/dL
